This is an account of results in ChEMBL document CHEMBL5108065 (J Med Chem, 2022).

Converted amounts (≈) assume the structure as drawn. The source made the active and inactive calls. The rule behind the calls is not given here.

The nature of data set [1]: Drug metabolism in Cynomolgus monkey hepatocytes assessed as (S)-6-(2-chloro-3-((6-cyclopropylpyridin-3-yl)amino)phenyl)-2-imino-6-methyl-3-((2S,4S)-2-methyltetrahydro-2H-pyran-4-yl)tetrahydropyrimidin-4(1H)-one metabolite formation. The class given is ADME, cell-based, Macaca fascicularis, Hepatocyte.
Data set [2] in a line: Inhibition of Plasmodium falciparum PMV by FRET assay.
The subject of data set [3] is Plasmodium falciparum. As to the kind of experiment: Antimalarial activity against asexual blood stage Plasmodium falciparum 3D7 assessed as parasite growth inhibition by measuring parasitemia by LDH assay. It counts as functional, organism-based.
A short description of data set [4]: Solubility of the compound in FeSSIF at pH 5.8. It counts as physicochemical. The following applies: simulated gi fluid.
Data set [5] is described as follows: Lipophilicity, log D of the compound. It counts as physicochemical. The following applies: octanol/water.
The test system of data set [6] is Plasmodium falciparum. As to the kind of experiment: Antimalarial activity against blood stage Plasmodium infected in NSG mouse model assessed as parasite recrudescence by measuring parasitemia at 50 mg/kg, po measured 60 days by flow cytometry. The class given is functional, organism-based. The following applies: time 60.0 day. (A flow cytometer gives signals particle by particle.)

In data set [7] the test system is Plasmodium berghei. Kind of data set: Antimalarial activity against Plasmodium berghei sporozoites infected in naive C57B/6 liver mouse model assessed as decrease in liver infection at 50 mg/kg, po administered once daily for 1 to 2 days by Giemsa staining based microscopic analysis. It counts as functional, organism-based. Conditions: time 1-2 day.
In data set [8] the test system is Plasmodium berghei. Kind of data set: Antimalarial activity against Plasmodium berghei sporozoites infected in naive C57B/6 liver mouse model assessed as decrease in liver infection at 50 mg/kg, po administered twice daily for 1 to 2 days by Giemsa staining based microscopic analysis. It counts as functional, organism-based. Conditions: time 1-2 day.
The nature of data set [9]: Lipophilicity, logD of compound at pH 7.4. It counts as physicochemical. Conditions: buffer.
Data set [10] in a line: Drug metabolism in dog hepatocytes assessed as (S)-6-(2-chloro-3-((6-cyclopropylpyridin-3-yl)amino)phenyl)-2-imino-6-methyl-3-((2S,4S)-2-methyltetrahydro-2H-pyran-4-yl)tetrahydropyrimidin-4(1H)-one metabolite formation. It counts as ADME, cell-based, Canis lupus familiaris, Hepatocyte.
A short description of data set [11]: Drug metabolism in rat hepatocytes assessed as (S)-6-(2-chloro-3-((6-cyclopropylpyridin-3-yl)amino)phenyl)-2-imino-6-methyl-3-((2S,4S)-2-methyltetrahydro-2H-pyran-4-yl)tetrahydropyrimidin-4(1H)-one metabolite formation. It counts as ADME, cell-based, Hepatocyte.
Data set [12] in a line: Drug metabolism in rat hepatocytes assessed as (S)-6-(2-chloro-3-((6-cyclopropylpyridin-3-yl)amino)phenyl)-2-imino-6-methyltetrahydropyrimidin-4(1H)-one metabolite formation. The class given is ADME, cell-based, Hepatocyte.
The target of data set [13] is Voltage-gated inwardly rectifying potassium channel KCNH2 (Homo sapiens, UniProt Q12809). As to the kind of experiment: Inhibition of hERG cardiac ion channel by patch clamp assay. It counts as toxicity.
Sequence of Voltage-gated inwardly rectifying potassium channel KCNH2 (Q12809 whole entry): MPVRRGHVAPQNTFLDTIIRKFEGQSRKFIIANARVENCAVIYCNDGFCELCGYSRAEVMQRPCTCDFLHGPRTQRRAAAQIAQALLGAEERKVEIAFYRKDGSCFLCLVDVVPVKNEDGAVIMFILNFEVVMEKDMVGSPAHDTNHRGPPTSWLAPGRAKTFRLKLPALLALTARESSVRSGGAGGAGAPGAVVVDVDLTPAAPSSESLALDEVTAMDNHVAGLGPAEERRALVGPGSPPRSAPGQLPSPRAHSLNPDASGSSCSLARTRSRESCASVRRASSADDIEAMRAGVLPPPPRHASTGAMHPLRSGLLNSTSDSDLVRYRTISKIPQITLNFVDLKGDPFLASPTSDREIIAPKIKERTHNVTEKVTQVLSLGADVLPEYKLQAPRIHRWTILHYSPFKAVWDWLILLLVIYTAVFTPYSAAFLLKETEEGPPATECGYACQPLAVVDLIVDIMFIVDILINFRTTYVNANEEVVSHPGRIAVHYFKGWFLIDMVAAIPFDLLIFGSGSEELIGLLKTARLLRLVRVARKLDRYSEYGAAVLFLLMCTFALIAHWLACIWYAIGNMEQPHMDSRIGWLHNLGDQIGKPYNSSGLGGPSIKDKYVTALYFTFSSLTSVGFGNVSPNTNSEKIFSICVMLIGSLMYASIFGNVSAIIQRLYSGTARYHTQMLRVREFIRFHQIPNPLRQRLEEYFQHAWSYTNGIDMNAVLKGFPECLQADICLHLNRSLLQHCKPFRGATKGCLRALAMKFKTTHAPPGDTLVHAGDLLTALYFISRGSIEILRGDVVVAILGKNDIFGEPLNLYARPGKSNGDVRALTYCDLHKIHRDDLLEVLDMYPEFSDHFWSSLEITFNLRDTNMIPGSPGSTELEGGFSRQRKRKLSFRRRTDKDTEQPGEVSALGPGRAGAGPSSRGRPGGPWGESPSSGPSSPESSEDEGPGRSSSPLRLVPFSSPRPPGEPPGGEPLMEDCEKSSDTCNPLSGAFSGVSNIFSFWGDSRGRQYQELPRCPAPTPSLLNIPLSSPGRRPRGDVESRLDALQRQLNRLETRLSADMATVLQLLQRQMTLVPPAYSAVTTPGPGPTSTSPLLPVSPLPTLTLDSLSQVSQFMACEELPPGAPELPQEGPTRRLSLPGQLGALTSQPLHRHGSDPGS
For data set [14], the target named is Potassium voltage-gated channel subfamily A member 5 (Homo sapiens, UniProt P22460). Kind of data set: Inhibition of Kv1.5 (unknown origin) by patch clamp method. It counts as toxicity.
Sequence of Potassium voltage-gated channel subfamily A member 5 (P22460 whole entry): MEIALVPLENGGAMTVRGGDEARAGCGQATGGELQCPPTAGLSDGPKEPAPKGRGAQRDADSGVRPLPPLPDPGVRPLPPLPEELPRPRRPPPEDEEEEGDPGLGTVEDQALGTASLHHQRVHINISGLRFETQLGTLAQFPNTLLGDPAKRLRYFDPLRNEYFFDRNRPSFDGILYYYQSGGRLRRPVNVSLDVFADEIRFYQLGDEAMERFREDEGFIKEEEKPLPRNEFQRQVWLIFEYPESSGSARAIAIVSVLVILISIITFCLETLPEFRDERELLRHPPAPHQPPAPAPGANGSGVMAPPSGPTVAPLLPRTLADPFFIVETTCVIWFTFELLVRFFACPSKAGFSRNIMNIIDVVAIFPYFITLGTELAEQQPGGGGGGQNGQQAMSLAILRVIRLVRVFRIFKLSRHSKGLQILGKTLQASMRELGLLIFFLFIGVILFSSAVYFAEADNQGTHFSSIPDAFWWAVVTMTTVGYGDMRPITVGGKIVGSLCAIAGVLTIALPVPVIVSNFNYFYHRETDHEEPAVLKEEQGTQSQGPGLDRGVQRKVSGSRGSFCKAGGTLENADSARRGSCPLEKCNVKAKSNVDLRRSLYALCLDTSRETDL
A further data set is filed under the species Homo sapiens. As to the kind of experiment: Inhibition of BACE (unknown origin) at 10 uM relative to control.
In data set [15] the test system is Plasmodium falciparum. As to the kind of experiment: Antimalarial activity against Plasmodium falciparum PH1263-C harbouring Pf-crt mutated loci assessed as inhibition of parasite growth pretreated for 48 hrs followed by [3H]-hypoxanthine addition measured after 24 hrs by scintillation counting method. It counts as functional, organism-based.
Data set [16] has as its system Plasmodium falciparum. As to the kind of experiment: Antimalarial activity against DSM265 resistant Plasmodium falciparum Dd2 harbouring pf-dhodh mutated loci assessed as inhibition of parasite growth pretreated for 48 hrs followed by [3H]-hypoxanthine addition measured after 24 hrs by scintillation counting method. It counts as functional, organism-based.
In data set [17] the test system is Plasmodium falciparum. As to the kind of experiment: Antimalarial activity against KAF156 resistant Plasmodium falciparum Dd2 harbouring pf-carl mutated loci assessed as inhibition of parasite growth pretreated for 48 hrs followed by [3H]-hypoxanthine addition measured after 24 hrs by scintillation counting method. The class given is functional, organism-based.

For another data set, the target named is T1, Plasmepsin IX (Plasmodium falciparum, UniProt Q8ILG2).
T1 sequence (Q8ILG2 whole entry): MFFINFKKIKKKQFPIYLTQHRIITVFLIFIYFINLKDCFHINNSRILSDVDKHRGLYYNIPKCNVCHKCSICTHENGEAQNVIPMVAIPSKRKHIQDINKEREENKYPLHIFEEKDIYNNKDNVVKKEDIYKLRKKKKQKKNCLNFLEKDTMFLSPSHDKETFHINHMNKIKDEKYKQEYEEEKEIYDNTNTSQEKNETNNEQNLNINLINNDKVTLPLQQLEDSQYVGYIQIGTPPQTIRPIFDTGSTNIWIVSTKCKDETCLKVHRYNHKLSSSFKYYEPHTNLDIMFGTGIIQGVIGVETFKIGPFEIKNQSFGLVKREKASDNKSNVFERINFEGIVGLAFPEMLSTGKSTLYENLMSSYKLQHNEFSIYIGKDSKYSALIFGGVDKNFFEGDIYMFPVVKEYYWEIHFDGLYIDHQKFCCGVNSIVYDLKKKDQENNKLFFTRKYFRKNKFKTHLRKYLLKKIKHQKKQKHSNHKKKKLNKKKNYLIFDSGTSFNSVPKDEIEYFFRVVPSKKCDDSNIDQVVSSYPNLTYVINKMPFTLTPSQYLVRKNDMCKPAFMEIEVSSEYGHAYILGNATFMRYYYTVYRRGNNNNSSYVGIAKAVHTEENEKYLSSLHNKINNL
Kind of data set: Inhibition of PMIX in Plasmodium falciparum 3D7 HA epitope.

Data set [18] is described as follows: Clearance in Sprague-Dawley rat blood at 1 mg/kg, iv measured at 2 to 72 hrs by LC-MS/MS analysis. It counts as ADME, organism-based. The following applies: whole blood, time 2-72 hrs.
Data set [19] in a line: Cardiotoxicity in anesthetized guinea-pig assessed as decrease in heart rate. The class given is toxicity, Cavia porcellus. Conditions: 0.09 µM, DDE = dose-dependent effect, dose 90 nM.
Data set [20] in a line: Cardiotoxicity in anesthetized guinea-pig assessed as decrease in arterial blood pressure. The class given is toxicity, Cavia porcellus. Conditions: 0.09 µM, DDE = dose-dependent effect, dose 90 nM.
Data set [21] in a line: fAUC in Han Wistar rat at 1000 mg/kg, po administered every other day for 7 days. It counts as ADME, organism-based. The following applies: in vivo, 168 h, time 7 day.
The nature of data set [22]: AUC in Han Wistar rat at 1000 mg/kg, po administered every other day for 7 days. The class given is ADME, organism-based. Further details: dose 1000 mg/kg, time 7 day, route po. Conditions: in vivo, 168 h.
Data set [23] can be described thus: Toxicity in Han Wistar rat assessed as effect on auditory reflex at 250 to 1000 mg/kg, po administered every other day for 7 days. Conditions: in vivo, 168 h, dose 250-1000 mg/kg, time 7 day. The class given is organism-based.
Data set [24] can be described thus: Toxicity in Han Wistar rat assessed as effect on mydriasis at 250 to 1000 mg/kg, po administered every other day for 7 days. It counts as organism-based. Conditions: in vivo, 168 h, dose 250-1000 mg/kg, time 7 day.
The nature of data set [25]: Toxicity in Han Wistar rat assessed as effect on pupillary reflex at 250 to 1000 mg/kg, po administered every other day for 7 days. It counts as organism-based. Conditions: in vivo, 168 h, dose 250-1000 mg/kg, time 7 day.
A short description of data set [26]: Toxicity in Han Wistar rat assessed as effect on photopic amplitude at 1000 mg/kg, po administered every other day for 7 days by ERG analysis. The following applies: in vivo, 168 h, time 7 day. The class given is organism-based.
Data set [27] in a line: Toxicity in Han Wistar rat assessed as effect on implicit times and latency at 1000 mg/kg, po administered every other day for 7 days by ERG analysis. The class given is organism-based. The following applies: in vivo, 168 h, time 7 day.
Data set [28] in a line: Genotoxicity in Han Wistar rat by micronucleus assay. It counts as toxicity.
Data set [29] can be described thus: Phototoxicity assessed as minimum extinction coefficient of the compound. It counts as toxicity.
Data set [30] concerns the target Plasmepsin X (Plasmodium falciparum (isolate 3D7)) (UniProt Q8IAS0). The following applies: Expi293F GnTI-.
Description: Inhibition of Plasmodium falciparum recombinant C-terminal TEV cleavable 8his-tagged PMX by FRET assay
A further data set in a line: in vivo. The following applies: cynomolgus monkey, blood, po, 10 mg/kg.
A further data set concerns the target Plasmepsin X (Plasmodium falciparum (isolate 3D7), UniProt Q8IAS0). Kind of data set: biochemical.

Sequence of Plasmepsin X (Q8IAS0 whole entry): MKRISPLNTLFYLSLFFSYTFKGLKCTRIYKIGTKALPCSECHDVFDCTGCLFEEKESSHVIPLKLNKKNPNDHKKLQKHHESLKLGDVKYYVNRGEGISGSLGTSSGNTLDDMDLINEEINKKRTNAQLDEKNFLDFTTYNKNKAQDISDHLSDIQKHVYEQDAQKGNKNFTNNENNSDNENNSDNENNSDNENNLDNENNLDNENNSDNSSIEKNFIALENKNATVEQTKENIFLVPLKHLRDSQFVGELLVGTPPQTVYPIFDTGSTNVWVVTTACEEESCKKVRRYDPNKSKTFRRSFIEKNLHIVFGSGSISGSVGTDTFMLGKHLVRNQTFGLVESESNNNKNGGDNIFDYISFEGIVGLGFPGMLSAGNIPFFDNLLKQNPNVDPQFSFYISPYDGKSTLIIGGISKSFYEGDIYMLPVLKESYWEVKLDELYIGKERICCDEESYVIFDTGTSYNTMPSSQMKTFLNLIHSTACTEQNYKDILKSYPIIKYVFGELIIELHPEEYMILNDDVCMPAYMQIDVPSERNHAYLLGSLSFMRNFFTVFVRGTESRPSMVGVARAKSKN
Sequence of Plasmepsin X (Plasmodium falciparum (isolate 3D7)) (Q8IAS0 whole entry): as above

Usually IC50 stands for the concentration at which inhibition is half-maximal. As usually defined, the solubility is how much of the substance goes into solution per volume. The logD is lipophilicity at a set pH, counting ionised and neutral species. Consider `C[C@H]1C[C@@H](N2C(=N)N[C@](C)(c3cccc(Nc4ccc(C5CC5)nc4)c3Cl)CC2=O)CCO1`, for which the Drug metabolism entry in data set [1], in data set [10], in data set [11] and in data set [12] was “Metabolite_Detected” in each case. Further, the IC50 in [2] is greater than 10000 nM; in the data set with Plasmodium falciparum [3] it was 14 nM; in data set [13] it was 14000 nM; in data set [14], 5000 nM. For the same compound, the solubility in data set [4] was 959 µM (≈ 449 µg/mL). Moreover, the logD in data set [5] and in [9] was 2.5 in each case. Also, the outcome in the data set with Plasmodium falciparum [6], with Plasmodium berghei [7] and in the data set with Plasmodium berghei [8] was Active.

As usually defined, the inhibition is the share of the control response that was lost under treatment. In general, clearance refers to the volume of plasma or blood freed of the substance per unit of time. What is called AUC is concentration integrated over time. For orientation: IC90 means the point of the concentration-response curve where the effect stands at 90%. By Tmax is commonly meant the time at which the peak concentration occurs. Turning to `C[C@H]1C[C@@H](N2C(=N)N[C@](C)(c3cccc(NC(=O)c4cccc(C#N)c4)c3Cl)CC2=O)CCO1`, the inhibition in the data set listed under Homo sapiens was found to be 64%. The IC50 was 18 nM with Plasmodium falciparum [15]; 22 nM in the data set with Plasmodium falciparum [16]; 19 nM in the data set with Plasmodium falciparum [17]; 142 nM against Plasmepsin IX; 7 nM against Plasmepsin X. This compound also returned a clearance in [18] of 43.9 mL/min/kg. The Activity result was “Dde” in data set [19]; “Dde” in [20]; “Non-Toxic” in data set [23]; “Non-Toxic” in data set [24]; “Non-Toxic” in [25]; “Non-Toxic” in data set [26]. Also, the Activity result is listed as “Non-Toxic” in [27], “Non-Toxic” in data set [28] and 2336 a.u.L/mol.cm in data set [29]. Moreover, in data set [21], the fAUC is 908 µM·h. Besides, the AUC in data set [22] is 2182 µM·h. The compound further displayed an IC90 in data set [30] of 52 nM. Moreover, in “in vivo”, the Tmax worked out at 1 h.
